Measurements published in patent US20240051937A1, “ISOINDOLINONE AMIDE COMPOUNDS USEFUL TO TREAT DISEASES ASSOCIATED WITH GSPT1” (Monte Rosa Therapeutics, Inc., priority 2021, published 2024).
Read-outs that look alike come from different tables or passages of the source.

What was measured:
[1] = target: T1, Full length wild-type cereblon CRBN (Homo sapiens, UniProt Q96SW2); test: Fluorescence polarization (FP) assay indicating cereblon binding
T1 construct: Full length wild-type cereblon CRBN (80.0 nM, 10 μL) was incubated in assay buffer
Text: Protocol for Fluorescent Polarization Assay
Compound activity was monitored in a fluorescence polarization (FP) homogeneous assay using 1-[5-({2-[2-(2-{[2-(2,6-dioxopiperidin-3-yl)-1,3-dioxo-2,3-dihydro-1H-isoindol-4-yl]oxy}acetamido)ethoxy]ethyl}carbamoyl)pentyl]-3,3-dimethyl-2-[(1E,3E)-5-[(2E)-1,3,3-trimethyl-5-sulfo-2,3-dihydro-1H-indol-2-ylidene]penta-1,3-dien-1-yl]-3H-indol-1-ium-5-sulfonate as a fluorescent probe. Unless otherwise stated, all reagents were purchased from Sigma Aldrich. Enzymatic reactions were conducted in Perkin-Elmer Black 384 well ProxiPlate Plus (catalogue no. 6008269) in 10 μL total volume. Full length wild-type cereblon CRBN (80.0 nM, 10 μL) was incubated in assay buffer containing 20 mM HEPES (pH 8.0), […], 0.5 mM TCEP and 0.05% Tween 20 in the presence or absence of compound (300 nL). Inhibitors were stored as 10 mM DMSO stocks in an inert environment (low humidity, dark, low oxygen, room temperature) using the Storage Pod System. Compounds and DMSO were dispensed using the Echo E5XX (Labcyte Inc. USA) to give concentrations from 300 to 0.937 or 3000 to 9.3 nM in a 12 data point curve. […] Following incubation at room temperature for 30 min, the assay was initiated by dispensing the probe to a final concentration of 5 nM (2.5 nL of a 20 μM stock) using the Echo E5XX. FP was measured after a period of 12 hours using a Pherastar plate reader (BMG Labtech, Germany) exciting at 590 nm and measuring the amount of parallel and perpendicular light at 675 nm. The FP signal was subsequently normalized to the no-compound control (i.e., DMSO). Analysis and IC50 values were derived using Dotmatics (Dotmatics UK) software.

GSPT1 = GSPT1 (Homo sapiens, UniProt P15170+Q96SW2); test: Immunofluorescence assay for GSPT1 degradation in CAL-Si cells; assay type: cell-based; set-up: CAL-Si cells were purchased from DSMZ (cat. Number ACC302); host or cells: CAL-Si (CAL-51) cells; details: 6 hours treatment
Description: The representative compounds were tested in an immunofluorescence assay for their activity to bind to degrade GSPT1. CAL-Si cells were purchased from DSMZ (cat. Number ACC302), sub-cultured in 90% Dulbecco's MEM (4.5 g/L glucose, Gibco 11965)+10% […] inactivated FBS (BioConcept, 2-01F136I) and incubated at 37° C., 5% CO2. For the assay, imaging microtiterplate Cell Carrier 96 Ultra (Perkin Elmer 6055302) were pre-coated with Fibronectin (Sigma F085, 30 μl at 0.2 μg/ml) in PBS (100 μl, Gibco 14190) for 45 min at room temperature, rinsed with PBS and CAL-Si cells (30K cells/well) were plated and let to adhere overnight. Cells were treated with compounds typically using a serial dilution ranging from 30 μM to 0.1 nM for 6 hours. Compounds were stored at 10 mM DMSO stocks. Vehicle (DMSO), positive (CC-885, 10 μM) and rescue controls (positive control plus 0.2 μM bortezomib) were also included at this stage. Cells were subsequently rinsed with PBS and fixed in 10% Formalin solution (50 μl, Sigma HT5011)) for 20 mins at room temperature. Following three consecutive PBS washes (100 μl), cells were permeabilized in 0.1% Triton X-100 in PBS (Sigma 93443, 50 μl) for 15 mins at room temperature. Following three further PBS washes, […] blocking buffer (1% BSA, Sigma A4503, in PBS) was added for 45 min for signal-to-noise reduction.
Primary antibody (human GSPT1, Sigma HPA052488) was diluted in blocking buffer (dil.1/300, 35 μl/well) and incubated with the cells overnight at 4° C. After three PBS washes, Alexa-fluor 488 coupled secondary antibodies (Invitrogen, A32731, dil.1/1000), Alexa-fluor 647-Phalloidin (Invitrogen, A22287, dil.1/200) and DAPI (Thermo, #62248, dil.1/1000) were diluted in blocking buffer and incubated with the samples for 2 hours at room temperature. After three final PBS washes, samples were conserved in […] PBS in the dark, until measurement. Image acquisition was performed on the Operetta High-Content Imager (Perkin-Elmer). Fluorescence intensity of Alexa-Fluor 488 (GSPT1), Alexa-Fluor 647 (Actin) and DAPI (Nucleus) were measured. For the determination of GSPT1 DC50 values, a custom algorithm implemented in the PerkinElmer image analysis software Harmony-Acapella® was developed. After user-defined setting of adjustment parameters, the analysis was run identically without human intervention for all image fields. DAPI staining of the nuclei was used to determine the location of cells using standard nuclei detection modules. Segmentation artifacts were removed by threshold-based filters for area, roundness and intensity. The outline of the cells was determined analogously from the sum of the normalized, smoothed DAPI and Actin channel, starting from each nucleus.
The Alexa-Fluor 488 (GSPT1) signal intensity in each cell was finally measured, in order to obtain a Mean intensity per cell. GSPT1 degradation (DC50) was calculated after normalization to controls and data import in CDD vault Database, using non-linear regression.

[2] = cereblon binding, CRBN 80.0 nM, probe 5 nM, FP read after 12 hours, read-out: rFP IC50
[3] = fluorescence polarization assay, read-out: IC50 value (cereblon binding)
[4] = read-out: Code: activity for GSPT1 degradation (DC50)
[5] = GSPT1 degradation, read-out: DC50

Sequence of GSPT1 (P15170 whole entry): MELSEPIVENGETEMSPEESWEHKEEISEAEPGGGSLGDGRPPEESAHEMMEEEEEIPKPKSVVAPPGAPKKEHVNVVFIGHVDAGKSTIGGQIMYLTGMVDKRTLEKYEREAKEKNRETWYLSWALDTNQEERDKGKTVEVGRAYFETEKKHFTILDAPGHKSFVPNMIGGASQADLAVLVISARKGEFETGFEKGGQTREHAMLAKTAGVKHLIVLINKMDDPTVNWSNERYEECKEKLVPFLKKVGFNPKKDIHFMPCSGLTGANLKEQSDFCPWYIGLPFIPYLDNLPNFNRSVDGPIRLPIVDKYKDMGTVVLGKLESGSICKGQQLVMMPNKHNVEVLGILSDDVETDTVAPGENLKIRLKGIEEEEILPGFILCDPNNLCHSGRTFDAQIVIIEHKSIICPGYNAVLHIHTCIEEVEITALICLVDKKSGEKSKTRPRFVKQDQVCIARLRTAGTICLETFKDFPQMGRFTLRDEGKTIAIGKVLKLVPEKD
Sequence of GSPT1 (Q96SW2 whole entry): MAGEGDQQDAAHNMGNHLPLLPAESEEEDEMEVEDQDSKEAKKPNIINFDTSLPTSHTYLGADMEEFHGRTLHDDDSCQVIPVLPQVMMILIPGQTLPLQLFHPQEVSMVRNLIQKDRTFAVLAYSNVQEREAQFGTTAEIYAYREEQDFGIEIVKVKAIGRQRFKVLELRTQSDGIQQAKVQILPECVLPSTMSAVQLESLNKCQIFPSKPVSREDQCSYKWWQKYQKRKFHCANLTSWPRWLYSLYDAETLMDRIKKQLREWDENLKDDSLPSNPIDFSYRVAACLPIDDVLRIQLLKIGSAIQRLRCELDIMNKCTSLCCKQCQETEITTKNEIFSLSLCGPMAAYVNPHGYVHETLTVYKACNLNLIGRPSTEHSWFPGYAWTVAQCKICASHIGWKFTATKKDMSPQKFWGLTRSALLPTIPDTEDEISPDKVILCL
Sequence of GSPT1 (Q16531 whole entry partner): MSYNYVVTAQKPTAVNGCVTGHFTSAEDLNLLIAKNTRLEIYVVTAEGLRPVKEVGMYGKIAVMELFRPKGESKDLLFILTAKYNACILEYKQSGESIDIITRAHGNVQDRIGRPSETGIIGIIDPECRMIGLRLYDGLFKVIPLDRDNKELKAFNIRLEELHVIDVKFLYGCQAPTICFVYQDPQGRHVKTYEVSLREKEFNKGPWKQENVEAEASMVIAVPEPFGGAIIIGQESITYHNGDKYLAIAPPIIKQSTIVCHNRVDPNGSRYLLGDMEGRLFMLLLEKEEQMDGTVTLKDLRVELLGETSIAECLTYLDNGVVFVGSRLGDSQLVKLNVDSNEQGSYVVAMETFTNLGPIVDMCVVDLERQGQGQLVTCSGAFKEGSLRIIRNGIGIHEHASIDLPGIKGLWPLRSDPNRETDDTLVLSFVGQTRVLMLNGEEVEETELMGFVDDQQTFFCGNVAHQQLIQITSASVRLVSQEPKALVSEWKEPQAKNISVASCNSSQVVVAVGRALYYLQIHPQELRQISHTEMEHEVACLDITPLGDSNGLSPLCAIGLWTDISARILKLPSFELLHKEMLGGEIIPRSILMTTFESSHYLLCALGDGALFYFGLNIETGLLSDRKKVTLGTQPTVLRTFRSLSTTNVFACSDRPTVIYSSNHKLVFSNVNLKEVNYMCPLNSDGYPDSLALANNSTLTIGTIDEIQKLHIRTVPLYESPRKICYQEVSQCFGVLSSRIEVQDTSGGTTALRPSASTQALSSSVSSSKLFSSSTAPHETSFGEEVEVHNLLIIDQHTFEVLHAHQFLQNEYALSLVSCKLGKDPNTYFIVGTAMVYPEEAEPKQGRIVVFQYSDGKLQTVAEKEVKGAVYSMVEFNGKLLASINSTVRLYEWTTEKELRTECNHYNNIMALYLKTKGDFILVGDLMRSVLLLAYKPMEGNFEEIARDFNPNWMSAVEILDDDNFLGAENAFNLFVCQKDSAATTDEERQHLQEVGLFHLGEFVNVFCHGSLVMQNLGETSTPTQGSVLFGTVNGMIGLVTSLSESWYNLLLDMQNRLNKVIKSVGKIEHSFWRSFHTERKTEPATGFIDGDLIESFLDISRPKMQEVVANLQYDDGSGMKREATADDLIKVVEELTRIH
T1 sequence (Q96SW2 whole entry): as the sequence (Q96SW2 whole entry) above

Row | SMILES | IC50 [1, 2] | IC50 [1, 3] | DC50 (GSPT1; [4]) | DC50 (GSPT1; [5])
1 | Cc1c(Cl)cc(NC(=O)CCc2ccc3c(c2)C(=O)N(C2CCC(=O)NC2=O)C3)cc1OCCN1CCOCC1 (stereo not drawn) [Compound 39] | ≤ 500 nM | < 1100 nM | 30 to 300 nM | 
2 | Cc1c(Cl)cc(NC(=O)CCc2ccc3c(c2)C(=O)N(C2CCC(=O)NC2=O)C3)cc1OC1CCNC1 (stereo not drawn) [Compound 40, N-(3-chloro-4-methyl-5-(pyrrolidin-3-yloxy)phenyl)-3-(2-(2,6-dioxopiperidin-3-yl)-3-oxoisoindolin-5-yl)propanamide] | ≤ 500 nM | < 1100 nM | > 300 nM | 
3 | CC(C)(C)c1ccc(NC(=O)CCc2ccc3c(c2)C(=O)N(C2CCC(=O)NC2=O)C3)cn1 (stereo not drawn) [Compound 41] | 1100 to 1700 nM |  | ≤ 30 nM | 26 nM
4 | Cc1c(F)cc(NC(=O)CCc2ccc3c(c2)C(=O)N(C2CCC(=O)NC2=O)C3)cc1CN1CCOCC1 (stereo not drawn) [Compound 42] | 1100 to 1700 nM |  | ≤ 30 nM | 30 nM
5 | CCc1cc(NC(=O)CCc2ccc3c(c2)C(=O)N(C2CCC(=O)NC2=O)C3)cc(Cl)c1C (stereo not drawn) [Compound 43] | 1100 to 1700 nM |  | ≤ 30 nM | 26 nM
6 | O=C1CCC(N2Cc3ccc(CCC(=O)Nc4ccc(-c5ccccn5)cc4)cc3C2=O)C(=O)N1 (stereo not drawn) [Compound 44] | 500 to 1100 nM | < 1100 nM | ≤ 30 nM | 27 nM
7 | CC(C)(C)c1ccc(NC(=O)CCc2ccc3c(c2)C(=O)N(C2CCC(=O)NC2=O)C3)cc1 (stereo not drawn) [Compound 45] | 500 to 1100 nM | < 1100 nM | ≤ 30 nM | 22 nM
8 | CCc1cc(NC(=O)CCc2ccc3c(c2)C(=O)N(C2CCC(=O)NC2=O)C3)cnc1C (stereo not drawn) [Compound 46] | 500 to 1100 nM | < 1100 nM | 30 to 300 nM | 
9 | CCc1ncc(NC(=O)CCc2ccc3c(c2)C(=O)N(C2CCC(=O)NC2=O)C3)cc1C (stereo not drawn) [Compound 47] | 500 to 1100 nM | < 1100 nM | 30 to 300 nM | 
10 | O=C1CCC(N2Cc3ccc(CCC(=O)Nc4cnc5c(c4)COCC5)cc3C2=O)C(=O)N1 (stereo not drawn) [Compound 48] | 1100 to 1700 nM |  | > 300 nM | 
11 | O=C1CCC(N2Cc3ccc(CCC(=O)Nc4cnc5c(c4)CCC5)cc3C2=O)C(=O)N1 (stereo not drawn) [Compound 49] | 1100 to 1700 nM |  | > 300 nM | 
12 | Cc1c(Cl)cc(NC(=O)CCc2ccc3c(c2)C(=O)N(C2CCC(=O)NC2=O)C3)cc1OC1CCN(C)C1 (stereo not drawn) [Compound 50] | ≤ 500 nM | < 1100 nM | 30 to 300 nM | 
13 | Cc1c(Cl)cc(NC(=O)CCc2ccc3c(c2)C(=O)N(C2CCC(=O)NC2=O)C3)cc1OCC1CCNC1 (stereo not drawn) [Compound 51] | ≤ 500 nM | < 1100 nM | > 300 nM | 
14 | Cc1cc(NC(=O)CCc2ccc3c(c2)C(=O)N(C2CCC(=O)NC2=O)C3)cc(C)n1 (stereo not drawn) [Compound 52] | > 1700 nM |  | > 300 nM | 
15 | Cc1c(CN2CCOCC2)cc(NC(=O)CCc2ccc3c(c2)C(=O)N(C2CCC(=O)NC2=O)C3)cc1OC(F)(F)F (stereo not drawn) [Compound 53] | 500 to 1100 nM | < 1100 nM | ≤ 30 nM | 22 nM
16 | CCc1cc(NC(=O)CCc2ccc3c(c2)C(=O)N(C2CCC(=O)NC2=O)C3)ccn1 (stereo not drawn) [Compound 54] | 500 to 1100 nM | < 1100 nM | > 300 nM | 
17 | CC1(c2ccc(NC(=O)CCc3ccc4c(c3)C(=O)N(C3CCC(=O)NC3=O)C4)cc2)COC1 (stereo not drawn) [Compound 55] | 1100 to 1700 nM |  | > 300 nM | 
18 | O=C1CCC(N2Cc3ccc(CCC(=O)Nc4cc(F)cc(OC(F)(F)F)c4)cc3C2=O)C(=O)N1 (stereo not drawn) [Compound 56] | > 1700 nM |  | 30 to 300 nM | 
19 | CCc1cc(NC(=O)CCc2ccc3c(c2)C(=O)N(C2CCC(=O)NC2=O)C3)cc(C)n1 (stereo not drawn) [Compound 57] | ≤ 500 nM | < 1100 nM | > 300 nM | 
20 | CC1(c2ccc(NC(=O)CCc3ccc4c(c3)C(=O)N(C3CCC(=O)NC3=O)C4)cc2)CC1 (stereo not drawn) [Compound 58] | 1100 to 1700 nM |  | 30 to 300 nM | 
21 | O=C1CCC(N2Cc3ccc(CCC(=O)Nc4cc(OC(F)(F)F)ccn4)cc3C2=O)C(=O)N1 (stereo not drawn) [Compound 59] | 500 to 1100 nM | < 1100 nM | > 300 nM | 
